# Results reported in the supplement of paper PMC10307832.
# Columns and labels:
# Test in all cases: relative viability (nuclei count vs DMSO), 5 days (fraction); higher = more cells survive
# A-427 = system: A-427
# Outline: (§1)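 Lung cancer cell lines were pin-tool dosed in 1536-well plates on the day after seeding, with either a lone drug or a fixed anchor-drug dose plus five library-drug doses (not always all listed) in √10 steps. Nuclei were counted on 4× images after 5 days. Relative viability is the ratio of treated-well to vehicle-well nuclei counts, with each value a median of duplicate plates.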
# NCI-H2347 = system: NCI-H2347
# Outline: as §1
# BEN = system: BEN
# Outline: as §1
# NCI-H661 = system: NCI-H661
# Outline: as §1
# NCI-H460 = system: NCI-H460
# Outline: as §1
# EKVX = system: EKVX
# Outline: as §1
# EPLC-272H = system: EPLC-272H
# Outline: as §1
# NCI-H2087 = system: NCI-H2087
# Outline: as §1
# EMC-BAC-2 = system: EMC-BAC-2
# Outline: as §1
# NCI-H520 = system: NCI-H520
# Outline: as §1
# LK-2 = system: LK-2
# Outline: as §1
# LXF-289 = system: LXF-289
# Outline: as §1
# SW 1573 = system: SW 1573
# Outline: as §1
# SW 900 = system: SW 900
# Outline: as §1
# COR-L23 = system: COR-L23
# Outline: as §1
# NCI-H2228 = system: NCI-H2228
# Outline: as §1
# NCI-H1650 = system: NCI-H1650
# Outline: as §1
# NCI-H1793 = system: NCI-H1793
# Outline: as §1
# NCI-H1915 = system: NCI-H1915
# Outline: as §1
# NCI-H1651 = system: NCI-H1651
# Outline: as §1
# HCC-44 = system: HCC-44
# Outline: as §1
# NCI-H358 = system: NCI-H358
# Outline: as §1
smiles,measurement,setting,value
COCC1(CO)C(=O)C2CCN1CC2 (stereo unspecified) [PRIMA-1MET] + Cc1cc(Nc2cc(N3CCN(C)CC3)nc(Sc3ccc(NC(=O)C4CC4)cc3)n2)n[nH]1 [Tozasertib] (partner 0.1 µM),relative viability,A-427; first compound 0.2 µM,0.163
same,relative viability,A-427; first compound 0.6325 µM,0.201
same,relative viability,A-427; first compound 2 µM,0.203
same,relative viability,A-427; first compound 6.325 µM,0.186
same,relative viability,A-427; first compound 20 µM,0.175
same,relative viability,NCI-H2347; first compound 0.2 µM,0.566
same,relative viability,NCI-H2347; first compound 0.6325 µM,0.531
same,relative viability,NCI-H2347; first compound 2 µM,0.237
same,relative viability,NCI-H2347; first compound 6.325 µM,0.516
same,relative viability,NCI-H2347; first compound 20 µM,0.433
same,relative viability,BEN; first compound 0.2 µM,0.504
same,relative viability,BEN; first compound 0.6325 µM,0.473
same,relative viability,BEN; first compound 6.325 µM,0.501
same,relative viability,BEN; first compound 20 µM,0.538
same,relative viability,NCI-H661; first compound 0.2 µM,0.369
same,relative viability,NCI-H661; first compound 0.6325 µM,0.354
same,relative viability,NCI-H661; first compound 2 µM,0.357
same,relative viability,NCI-H661; first compound 6.325 µM,0.343
same,relative viability,NCI-H661; first compound 20 µM,0.353
same,relative viability,NCI-H460; first compound 0.2 µM,0.443
same,relative viability,NCI-H460; first compound 0.6325 µM,0.312
same,relative viability,NCI-H460; first compound 2 µM,0.311
same,relative viability,NCI-H460; first compound 6.325 µM,0.5
same,relative viability,NCI-H460; first compound 20 µM,0.0183
same,relative viability,EKVX; first compound 0.2 µM,0.452
same,relative viability,EKVX; first compound 0.6325 µM,0.357
same,relative viability,EKVX; first compound 6.325 µM,0.397
same,relative viability,EKVX; first compound 20 µM,0.366
same,relative viability,EPLC-272H; first compound 2 µM,0.186
same,relative viability,EPLC-272H; first compound 6.325 µM,0.196
same,relative viability,EPLC-272H; first compound 20 µM,0.105
same,relative viability,NCI-H2087; first compound 0.2 µM,0.321
same,relative viability,NCI-H2087; first compound 0.6325 µM,0.279
same,relative viability,NCI-H2087; first compound 2 µM,0.267
same,relative viability,NCI-H2087; first compound 6.325 µM,0.271
same,relative viability,NCI-H2087; first compound 20 µM,0.126
same,relative viability,EMC-BAC-2; first compound 0.2 µM,0.335
same,relative viability,EMC-BAC-2; first compound 0.6325 µM,0.332
same,relative viability,EMC-BAC-2; first compound 6.325 µM,0.277
same,relative viability,EMC-BAC-2; first compound 20 µM,0.191
same,relative viability,NCI-H520; first compound 0.2 µM,0.402
same,relative viability,NCI-H520; first compound 0.6325 µM,0.416
same,relative viability,NCI-H520; first compound 6.325 µM,0.384
same,relative viability,NCI-H520; first compound 20 µM,0.236
same,relative viability,LK-2; first compound 0.2 µM,0.189
same,relative viability,LK-2; first compound 0.6325 µM,0.177
same,relative viability,LK-2; first compound 2 µM,0.144
same,relative viability,LK-2; first compound 6.325 µM,0.161
same,relative viability,LK-2; first compound 20 µM,0.132
same,relative viability,LXF-289; first compound 0.2 µM,0.217
same,relative viability,LXF-289; first compound 0.6325 µM,0.173
same,relative viability,LXF-289; first compound 2 µM,0.16
same,relative viability,LXF-289; first compound 6.325 µM,0.175
same,relative viability,LXF-289; first compound 20 µM,0.192
same,relative viability,SW 1573; first compound 0.2 µM,0.189
same,relative viability,SW 1573; first compound 0.6325 µM,0.0874
same,relative viability,SW 1573; first compound 2 µM,0.191
same,relative viability,SW 1573; first compound 6.325 µM,0.0585
same,relative viability,SW 1573; first compound 20 µM,0.0263
same,relative viability,SW 900; first compound 0.2 µM,0.784
same,relative viability,SW 900; first compound 0.6325 µM,0.465
same,relative viability,SW 900; first compound 2 µM,0.524
same,relative viability,SW 900; first compound 6.325 µM,0.388
same,relative viability,SW 900; first compound 20 µM,0.084
same,relative viability,COR-L23; first compound 0.2 µM,0.223
same,relative viability,COR-L23; first compound 0.6325 µM,0.285
same,relative viability,COR-L23; first compound 2 µM,0.212
same,relative viability,COR-L23; first compound 6.325 µM,0.195
same,relative viability,COR-L23; first compound 20 µM,0.0198
same,relative viability,NCI-H2228; first compound 0.2 µM,0.312
same,relative viability,NCI-H2228; first compound 0.6325 µM,0.262
same,relative viability,NCI-H2228; first compound 2 µM,0.322
same,relative viability,NCI-H2228; first compound 6.325 µM,0.203
same,relative viability,NCI-H2228; first compound 20 µM,0.0992
same,relative viability,NCI-H1650; first compound 0.2 µM,0.516
same,relative viability,NCI-H1650; first compound 0.6325 µM,0.377
same,relative viability,NCI-H1650; first compound 2 µM,0.492
same,relative viability,NCI-H1650; first compound 6.325 µM,0.537
same,relative viability,NCI-H1650; first compound 20 µM,0.0907
same,relative viability,NCI-H1793; first compound 0.2 µM,0.44
same,relative viability,NCI-H1793; first compound 0.6325 µM,0.316
same,relative viability,NCI-H1793; first compound 6.325 µM,0.414
same,relative viability,NCI-H1793; first compound 20 µM,0.237
same,relative viability,NCI-H1915; first compound 0.2 µM,0.444
same,relative viability,NCI-H1915; first compound 0.6325 µM,0.368
same,relative viability,NCI-H1915; first compound 6.325 µM,0.389
same,relative viability,NCI-H1915; first compound 20 µM,0.364
same,relative viability,NCI-H1651; first compound 0.2 µM,0.848
same,relative viability,NCI-H1651; first compound 0.6325 µM,0.66
same,relative viability,NCI-H1651; first compound 2 µM,0.723
same,relative viability,NCI-H1651; first compound 6.325 µM,0.712
same,relative viability,NCI-H1651; first compound 20 µM,0.649
same,relative viability,HCC-44; first compound 0.2 µM,1.18
same,relative viability,HCC-44; first compound 0.6325 µM,0.958
same,relative viability,HCC-44; first compound 2 µM,0.811
same,relative viability,HCC-44; first compound 6.325 µM,1.01
same,relative viability,HCC-44; first compound 20 µM,0.827
same,relative viability,NCI-H358; first compound 0.2 µM,0.105
same,relative viability,NCI-H358; first compound 2 µM,0.098
same,relative viability,NCI-H358; first compound 6.325 µM,0.117
same,relative viability,NCI-H358; first compound 20 µM,0.0866
